This note sets out measurements from patent publication US7960556B2, “Thiadiazole derivatives for the treatment of neuro-degenerative diseases” (NV reMYND, priority 2006, dated 2011).

The assay has as its system α-synuclein cytotoxicity in M17-SYNwt cells. The assay can be described thus: α-synuclein cytotoxicity assay: LDH leakage from paraquat-treated M17-SYNwt neuroblastoma cells.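 As to all read-outs here: paraquat at 32 mM co-added with compound, 40 h exposure, LDH activity released into the culture medium measured, references are DMSO-only cells and paraquat plus DMSO cells.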 The conditions noted are these: Homo sapiens, Neuroblastoma cell; for Emax: read-out: % Inhib.

Molecules are shown by their SMILES.

Take `O=C(c1cccc(Cl)c1)N1CCN(c2nc(Cc3ccc(F)cc3)ns2)CC1` [compound 138, 1-(3-chlorobenzoyl)-4-[3-(4-fluorobenzyl)-1,2,4-thiadiazol-5-yl]piperazine]: a half-maximal effect (EC50) was put at 360 nM and the Emax was 81%.
On to `Cc1ccc(C(=O)N2CCN(c3nc(Cc4ccc(F)cc4)ns3)CC2C)cc1` (stereo not shown) [compound 139, 1-(4-methylbenzoyl)-4-[3-(4-fluorobenzyl)-1,2,4-thiadiazol-5-yl]-2-methylpiperazine], for which the EC50 came to 400 nM and the Emax was found to be 87%.
In the case of `Cc1ccccc1C(=O)N1CCN(c2nc(Cc3ccc(F)cc3)ns2)CC1C` (stereo not shown) [compound 140, 1-(2-methylbenzoyl)-4-[3-(4-fluorobenzyl)-1,2,4-thiadiazol-5-yl]-2-methylpiperazine], the EC50 is 450 nM and the Emax was 56%.
Turning to `Cc1ccc(C(=O)N2CCN(c3nc(Cc4ccc(F)cc4)ns3)CC2)cc1` [compound 141, 1-(4-methylbenzoyl)-4-[3-(4-fluorobenzyl)-1,2,4-thiadiazol-5-yl]piperazine], the EC50 came to 490 nM and the Emax worked out at 75%.
The like results for `CC1CN(c2nc(Cc3ccc(F)cc3)ns2)CCN1C(=O)c1cccc(Br)c1` (stereo not shown) [compound 142, 1-(3-bromobenzoyl)-4-[3-(4-fluorobenzyl)-1,2,4-thiadiazol-5-yl]-2-methylpiperazine] were, in that order, 500 nM and 72%.
For `CCc1ccc(C(=O)N2CCN(c3nc(Cc4cccc(OC)c4)ns3)CC2C)cc1` (stereo not shown) [compound 143, 1-(4-ethylbenzoyl)-4-[3-(3-methoxybenzyl)-1,2,4-thiadiazol-5-yl]-2-methylpiperazine], the EC50 came out at 560 nM and the Emax was found to be 89%.
Regarding `CC1CN(c2nc(Cc3ccc(F)cc3)ns2)CCN1C(=O)c1cccc(C(F)(F)F)c1` (stereo not shown) [compound 145, 1-(3-trifluoromethylbenzoyl)-4-[3-(4-fluorobenzyl)-1,2,4-thiadiazol-5-yl]-2-methylpiperazine], a half-maximal effect (EC50) was put at 620 nM and the Emax is 60%.
`COc1cccc(Cc2nsc(N3CCN(C(=O)c4ccc(C(C)(C)C)cc4)C(C)C3)n2)c1` (stereo not shown) [compound 146, 1-(4-tert-butylbenzoyl)-4-[3-(3-methoxybenzyl)-1,2,4-thiadiazol-5-yl]-2-methylpiperazine]: the midpoint of the response, the EC50, lay at 720 nM and the Emax was 94%.
The matching figures for `CCc1ccc(C(=O)N2CCN(c3nc(Cc4ccc(C)cc4)ns3)CC2C)cc1` (stereo not shown) [compound 147, 1-(4-ethylbenzoyl)-4-[3-(4-methylbenzyl)-1,2,4-thiadiazol-5-yl]-2-methylpiperazine]: 840 nM and 88%.
Turning to `CC1CN(c2nc(Cc3ccc(F)cc3)ns2)CCN1C(=O)c1ccccc1Br` (stereo not shown) [compound 148, 1-(2-bromobenzoyl)-4-[3-(4-fluorobenzyl)-1,2,4-thiadiazol-5-yl]-2-methylpiperazine], the response was half-maximal at 860 nM (EC50) and the Emax worked out at 56%.
As for `Cc1ccc(Cc2nsc(N3CCN(C(=O)c4ccccc4F)C(C)C3)n2)cc1` (stereo not shown) [compound 149, 1-(2-fluorobenzoyl)-4-[3-(4-methylbenzyl)-1,2,4-thiadiazol-5-yl]-2-methylpiperazine], the EC50 was 980 nM and the Emax was 105%.
Regarding `CC1CN(c2nc(Cc3ccccc3)ns2)CCN1C(=O)c1cccc(F)c1` (stereo not shown) [compound 150, 1-(3-fluorobenzoyl)-4-[3-benzyl-1,2,4-thiadiazol-5-yl]-2-methylpiperazine], the concentration giving a half-maximal response (EC50) was 1140 nM and the Emax worked out at 99%.
For `Cc1ccc(Cc2nsc(N3CCN(C(=O)c4ccc(F)cc4)C(C)C3)n2)cc1` (stereo not shown) [compound 151, 1-(4-fluorobenzoyl)-4-[3-(4-methylbenzyl)-1,2,4-thiadiazol-5-yl]-2-methylpiperazine], the EC50 is 1140 nM and the Emax came out at 73%.
Turning to `Cc1ccccc1C(=O)N1CCN(c2nc(Cc3ccc(F)cc3)ns2)CC1` [compound 152, 1-(2-methylbenzoyl)-4-[3-(4-fluorobenzyl)-1,2,4-thiadiazol-5-yl]piperazine], the EC50 amounted to 1150 nM and the Emax is 66%.
The matching figures for `O=C(c1ccc(F)cc1)N1CCN(c2nc(Cc3ccc(Cl)cc3)ns2)CC1` [compound 153, 1-(4-fluorobenzoyl)-4-[3-(4-chlorobenzyl)-1,2,4-thiadiazol-5-yl]piperazine]: 1440 nM and 53%.
For the compound `CC1CN(c2nc(Cc3ccccc3)ns2)CCN1C(=O)c1ccc(F)cc1` (stereo not shown) [compound 154, 1-(4-fluorobenzoyl)-4-[3-benzyl-1,2,4-thiadiazol-5-yl]-2-methylpiperazine], the EC50 came out at 1580 nM and the Emax is 75%.
For the compound `Cc1ccc(Cc2nsc(N3CCN(C(=O)c4ccc(Cl)cc4)CC3)n2)cc1` [compound 155, 1-(4-chlorobenzoyl)-4-[3-(4-methylbenzyl)-1,2,4-thiadiazol-5-yl]piperazine], it took 1640 nM to reach a half-maximal effect (EC50) and the Emax was determined as 76%.
Consider `Cc1ccc(Cc2nsc(N3CCN(C(=O)c4cccc(F)c4)C(C)C3)n2)cc1` (stereo not shown) [compound 156, 1-(3-fluorobenzoyl)-4-[3-(4-methylbenzyl)-1,2,4-thiadiazol-5-yl]-2-methylpiperazine], for which the EC50 was found to be 1670 nM and the Emax was found to be 86%.
Take `O=C(c1cccc(F)c1)N1CCN(c2nc(Cc3ccc(Cl)cc3)ns2)CC1` [compound 157, 1-(3-fluorobenzoyl)-4-[3-(4-chlorobenzyl)-1,2,4-thiadiazol-5-yl]piperazine]: a half-maximal effect (EC50) was put at 1700 nM and the Emax is 70%.
On to `Cc1ccc(Cc2nsc(N3CCN(C(=O)c4ccccc4)CC3)n2)cc1` [compound 158, 1-benzoyl-4-[3-(4-methylbenzyl)-1,2,4-thiadiazol-5-yl]piperazine], for which it took 2100 nM to reach a half-maximal effect (EC50) and the Emax came out at 57%.
Turning to `O=C(c1ccccc1F)N1CCN(c2nc(Cc3ccc(Cl)cc3)ns2)CC1` [compound 159, 1-(2-fluorobenzoyl)-4-[3-(4-chlorobenzyl)-1,2,4-thiadiazol-5-yl]piperazine], the EC50 was determined as 2850 nM and the Emax was determined as 48%.
With `Cc1ccc(Cc2nsc(N3CCN(C(=O)c4ccc(F)cc4)CC3)n2)cc1` [compound 160, 1-(4-fluorobenzoyl)-4-[3-(4-methylbenzyl)-1,2,4-thiadiazol-5-yl]piperazine], a half-maximal effect (EC50) was put at 2870 nM and the Emax was found to be 88%.
`Cc1ccc(Cc2nsc(N3CCN(C(=O)c4ccc5c(c4)OCO5)C(C)C3)n2)cc1` (stereo not shown) [compound 161, 1-(1,3-benzodioxol-5-ylcarbonyl)-4-[3-(4-methylbenzyl)-1,2,4-thiadiazol-5-yl]-2-methyl + B176piperazine]: the EC50 stood at 3360 nM and the Emax stood at 101%.
For the compound `Cc1ccc(Cc2nsc(N3CCN(C(=O)c4cccc(F)c4)CC3)n2)cc1` [compound 162, 1-(3-flurorbenzoyl)-4-[3-(4-methylbenzyl)-1,2,4-thiadiazol-5-yl]piperazine], it took 3400 nM to reach a half-maximal effect (EC50) and the Emax was 101%.
The like results for `O=C(c1ccc(F)cc1)N1CCN(c2nc(Cc3ccccc3)ns2)CC1` [compound 163, 1-(4-fluorobenzoyl)-4-[3-benzyl-1,2,4-thiadiazol-5-yl]piperazine] were, in that order, 3610 nM and 67%.
With `Cc1ccc(Cc2nsc(N3CCN(C(=O)c4ccc(Br)cc4)CC3)n2)cc1` [compound 164, 1-(4-bromobenzoyl)-4-[3-(4-methylbenzyl)-1,2,4-thiadiazol-5-yl]piperazine], the response was half-maximal at 3860 nM (EC50) and the Emax turned out to be 60%.
With `CCc1ccc(C(=O)N2CCN(c3nc(Cc4ccc(Cl)cc4)ns3)CC2)cc1` [compound 165, 1-(4-ethylbenzoyl)-4-[3-(4-chlorobenzyl)-1,2,4-thiadiazol-5-yl]piperazine], the Emax came to 133%.
`CC1CN(c2nc(Cc3ccc(F)cc3)ns2)CCN1C(=O)c1ccccc1Cl` (stereo not shown) [compound 166, 1-(2-chlorobenzoyl)-4-[3-(4-fluorobenzyl)-1,2,4-thiadiazol-5-yl]-2-methylpiperazine]: the Emax turned out to be 123%.
Same read-out and setting: then `CC1CN(c2nc(Cc3ccc(Cl)cc3)ns2)CCN1C(=O)c1ccccc1F` (stereo not shown) [compound 167, 1-(2-fluorobenzoyl)-4-[3-(4-chlorobenzyl)-1,2,4-thiadiazol-5-yl]-2-methylpiperazine], with 117%; and `COc1cccc(Cc2nsc(N3CCN(C(=O)c4ccc(C(F)(F)F)cc4)C(C)C3)n2)c1` (stereo not shown) [compound 168, 1-(4-trifluoromethylbenzoyl)-4-[3-(3-methoxybenzyl)-1,2,4-thiadiazol-5-yl]-2-methylpiperazine], with 91%; and `Cc1ccc(Cc2nsc(N3CCN(C(=O)c4ccccc4)C(C)C3)n2)cc1` (stereo not shown) [compound 169, 1-benzoyl-4-[3-(4-methylbenzyl)-1,2,4-thiadiazol-5-yl]-2-methylpiperazine], with 91%.
On to `COc1cccc(Cc2nsc(N3CCN(C(=O)c4ccc(Br)cc4)C(C)C3)n2)c1` (stereo not shown) [compound 170, 1-(4-bromobenzoyl)-4-[3-(3-methoxybenzyl)-1,2,4-thiadiazol-5-yl]-2-methylpiperazine], for which the Emax amounted to 89%.
Regarding `Cc1ccc(Cc2nsc(N3CCN(C(=O)c4ccc(C(F)(F)F)cc4)CC3)n2)cc1` [compound 171, 1-(4-trifluoromethylbenzoyl)-4-[3-(4-methylbenzyl)-1,2,4-thiadiazol-5-yl]piperazine], the Emax is 86%.
Still for that read-out and setting: then `Cc1ccc(C(=O)N2CCN(c3nc(Cc4ccc(F)cc4)ns3)CC2C)cc1[N+](=O)[O-]` (stereo not shown) [compound 172, 1-(3-nitro-4-methylbenzoyl)-4-[3-(4-fluorobenzyl)-1,2,4-thiadiazol-5-yl]-2-methylpiperazine], with 86%; and `COc1cccc(Cc2nsc(N3CCN(C(=O)c4ccccc4)C(C)C3)n2)c1` (stereo not shown) [compound 173, 1-benzoyl-4-[3-(3-methoxybenzyl)-1,2,4-thiadiazol-5-yl]-2-methylpiperazine], with 85%.
